Assay results: patent US20090227555A2, “Novel Pyridine Compounds” (priority 2005, published 2009)
Read-outs that look alike come from different tables or passages of the source.

Target: T1, P2Y12 receptor (Homo sapiens, UniProt Q9H244)
T1 construct: expressed in transfected cells; host or cells: CHO cells (membrane preparation)
Assay: Functional inhibition of 2-Me-S-ADP induced P2Y12 signalling (35S-GTPγS, cell membranes from P2Y12 transfected CHO-cells)
Assay type: biochemical
Source text: Functional inhibition of—the P2Y12 receptor can be measured by in vitro assays using cell membranes from P2Y12 transfected CHO-cells. Inhibition of platelet aggregation as a result of P2Y12 antagonism is best measured by ADP-induced aggregation of washed human platelets, activation of the platelet fibrinogen receptor (GPIIb/IIIa), or aggregation in whole blood via residual platelet counting. Detailed methodology is indicated below.
Functional inhibition of 2-Me-S-ADP induced P2Y12 signalling: 5 μg of membranes were diluted in 200 μl of 200 mM NaCl, 1 mM MgCl2, 50 mM HEPES (pH 7.4), 0.01% BSA, 30 μg/ml saponin and 10 μM GDP. To this was added an EC80 concentration of agonist (2-methyl-thio-adenosine diphosphate), the required concentration of test compound and 0.1 μCi ^35S-GTPγS. The reaction was allowed to proceed at 30° C. for 45 min. Samples were then transferred on to GF/B filters using a cell harvester and washed with wash buffer (50 mM Tris (pH 7.4), 5 mM MgCl2, 50 mM NaCl). Filters were then covered with scintilant and counted for the amount of ^35S-GTPγS retained by the filter. Maximum activity was that determined in the presence of the agonist and minimum activity in the absence of the agonist following subtraction of the value determined for non-specific activity.

T1 sequence (Q9H244 whole entry): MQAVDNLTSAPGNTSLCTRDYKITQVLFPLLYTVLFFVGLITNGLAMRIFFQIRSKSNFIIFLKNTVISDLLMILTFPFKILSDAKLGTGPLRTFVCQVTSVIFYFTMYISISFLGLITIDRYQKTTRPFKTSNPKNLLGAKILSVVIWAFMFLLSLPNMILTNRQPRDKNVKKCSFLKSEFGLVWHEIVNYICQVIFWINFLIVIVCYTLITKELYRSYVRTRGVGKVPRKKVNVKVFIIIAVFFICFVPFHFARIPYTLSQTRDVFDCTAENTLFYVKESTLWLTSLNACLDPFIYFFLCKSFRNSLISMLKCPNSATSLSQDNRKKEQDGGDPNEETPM

| IC50 (5 μg membranes, EC80 concentration of agonist 2-methyl-thio-adenosine diphosphate, 35S-GTPγS, 30° C., 45 min, read-out: IC50) [nM] | Compound | IC50 [nM] |
| --- | --- | --- |
|  | CC(C)OC(=O)c1cnc(N2CCN(C(=O)NS(=O)(=O)c3ccc(Cl)s3)CC2)c(Cl)c1 [Example 18, Isopropyl 5-chloro-6-[4-({[(5-chloro-2-thienyl)sulfonyl]amino}carbonyl)piperazin-1-yl]nicotinate] | 520 |
| 610 | CCOC(=O)c1cnc(N2CCN(C(=O)NS(=O)(=O)c3ccccc3)CC2)c(Cl)c1 [Example 10, Ethyl 5-chloro-6-(4-{[(phenylsulfonyl)amino]carbonyl}piperazin-1-yl)nicotinate] |  |
